Our source for the DC50 and Dmax values is patent US20240279202A1 (NURIX THERAPEUTICS, INC., priority 2021, published 2024).

The target in this test is T1, ITK (Homo sapiens, UniProt Q08881).
T1 sequence (Q08881 1-620): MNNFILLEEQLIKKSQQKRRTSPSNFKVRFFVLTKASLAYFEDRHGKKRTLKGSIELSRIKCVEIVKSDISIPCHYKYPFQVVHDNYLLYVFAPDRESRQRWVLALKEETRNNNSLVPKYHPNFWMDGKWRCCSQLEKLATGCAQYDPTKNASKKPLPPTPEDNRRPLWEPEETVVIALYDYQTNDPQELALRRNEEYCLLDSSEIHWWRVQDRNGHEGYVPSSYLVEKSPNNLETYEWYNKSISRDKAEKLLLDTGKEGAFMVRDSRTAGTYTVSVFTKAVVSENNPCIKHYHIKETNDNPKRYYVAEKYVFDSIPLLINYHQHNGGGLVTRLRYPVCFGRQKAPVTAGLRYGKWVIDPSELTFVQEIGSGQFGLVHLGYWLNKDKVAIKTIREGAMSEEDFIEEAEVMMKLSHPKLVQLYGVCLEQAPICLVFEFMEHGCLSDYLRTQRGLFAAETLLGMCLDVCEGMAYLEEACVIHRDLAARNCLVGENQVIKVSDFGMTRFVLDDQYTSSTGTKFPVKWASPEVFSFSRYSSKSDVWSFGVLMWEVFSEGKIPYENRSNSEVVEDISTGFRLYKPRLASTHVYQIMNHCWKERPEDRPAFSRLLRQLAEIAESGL
The test is described as follows: ITK degradation MSD (Meso Scale Discovery) assay. The class given is cell-based. The arrangement: either human Jurkat (Clone E6-1 ATCC TIB-152) or Motl4 (ATCC CRL-1552), were plated; endogenous in cells; host or cells: Jurkat clone E6-1 (ATCC TIB-152) or Molt4 (ATCC CRL-1552). The note with it: Jurkat or Molt4 cells, 4 or 6 hrs. The method, then: ITK Degradation MSD (Meso Scale Discovery) Assay Compound dilution series (7-point, 5 fold dilutions in DMSO, rows B-H with replicate in Column 1⁄2, 3⁄4, 5⁄6, 7,8, at 2000× the final required concentrations were prepared in 96 well plates (Falcon, cat. no. 353077). Row A, Column 1-8 were control DMSO. The 2000× solutions ranged from 2 mM to 128 nM (final assay concentration range 1 μM to […]). The 2000× solutions were added to cells in […], for a final DMSO concentration of 0.5% and final assay compound concentration of 1×. For the cells, either human Jurkat (Clone E6-1 ATCC TIB-152) or Motl4 (ATCC CRL-1552), were plated at 1×10^6 cells/mL, 100 μL/well ([…]) in complete RPMI (10% FBS, 1% L-glutamine). Cells were incubated for 4 or 6 hrs at 32° C./6% CO2. Following incubation, plates were centrifuged at 1200 rpm for 5 min. supernatant was removed and 50 μL of cell lysis buffer ((MSD Tris lysis buffer (R60TX), Complete Mini EDTA-free protease inhibitor (Sigma 11836170001), Protease Inhibitor Cocktail (Sigma, P2714), Phosphatase Inhibitor Cocktail 2 and 3 (Sigma, P5726 and P0044), and Benzonase (Sigma, E1014)) was added to each well. Plates were sealed and shook at 4° C. for 30 min. Plates were centrifuged and 45 μL was removed for plate assays. Assay plate preparation: Meso Scale Discovery (MSD) multi-array sm spot 96 well plates (Goat anti-Rabbit L^45-RA), were blocked with 3% BSA blocking buffer (3% Bovine Serum Albumin (Sigma A3059)+TBS 0.2% Tween-20) for 1 hr with gentle rocking at room temperature. Plates were then washed with 200 μL of 1× TBST (TBS 0.2% Tween-20) 3 times. After last wash, liquid was removed and 50 μL per well of capture antibody (abcam ITK Y402-ab32507) was added to plates at a 1:1000 dilution in blocking buffer (above). Plates were sealed and rocked at room temperature for 2 hrs. Plates were then washed 3 times with 200 μL of 1× TBST. After last wash, liquid was removed and 45 μL of cell lysate (from above) was added to each plate. Plates were sealed and rocked overnight at 4° C. Next day, cell lysates were removed, and assay plates were washed 3 times with 200 μL of 1× TBST. After last wash, liquid was removed and detection antibody (CST ITK (2F12) #2380) was added at 50 μL per well at a dilution of 1:1000 in blocking buffer. Plates were sealed and rocked at room temperature for 2 hrs. Plates were washed 3 times with 200 uL of 1× TBST. After last wash, liquid was removed, MSD Mouse anti-Rabbit sulfo tag (R32AC-1) was diluted to 1:1000 in blocking buffer. 50 μL was added to each well on the plate. Plates were sealed and incubated at room temperature for 1 hr. Plates were washed 3 times with 200 μL of 1× TBST. After last wash, liquid was removed and 150 μL of 1× MSD Read Buffer T ([…]) was then added to each well for ECL read out. For reading ECL signal, plate is read on a Meso Scale Discovery (MSD) MESO Sector S 600 plate reader. Percent ITK in then calculated as described below. Percent ITK remaining per sample was calculated as follows: [formula] Using Graphpad Prism, % ITK remaining values were plotted as a function of compound concentration. To determine DC50 and Dmax values, resulting curves were fit to the Prism curve-fitting equation “log(inhibitor) vs response-Variable slope (four parameters)” (reported best fit value IC50 used as DC50).

Regarding `C[C@@]12Cc3[nH]nc(C(=O)Nc4cnn([C@H](c5ccccc5)C5CN(C(=O)CCOCCNc6cccc7c6C(=O)N(C6CCC(=O)NC6=O)C7=O)C5)c4)c3C[C@@H]1C2(F)F` (stereo partly drawn) [Compound 27, (4aS,5aR)-N-(1-((1S)-(1-(3-(2-((2-(2,6-dioxopiperidin-3-yl)-1,3-dioxoisoindolin-4-yl)amino)ethoxy)propanoyl)azetidin-3-yl)(phenyl)methyl)-1H-pyrazol-4-yl)-5,5-difluoro-5a-methyl-1,4,4a,5,5a,6-hexahydrocyclopropafindazole-3-carboxamide], it took 3.8 nM to reach half-maximal degradation (DC50) and the Dmax was found to be 92%.

In the case of `C[C@@]12Cc3[nH]nc(C(=O)Nc4cnn([C@H](c5ccccc5)C5CN(C(=O)CCOCCOCCOCCNc6cccc7c6C(=O)N(C6CCC(=O)NC6=O)C7=O)C5)c4)c3C[C@@H]1C2(F)F` (stereo partly drawn) [Compound 28, (4aS,5aR)-N-(1-((1S)-(1-(3-(2-(2-(2-((2-(2,6-dioxopiperidin-3-yl)-1,3-dioxoisoindolin-4-yl)amino)ethoxy)ethoxy)ethoxy)propanoyl)azetidin-3-yl)(phenyl)methyl)-1H-pyrazol-4-yl)-5,5-difluoro-5a-methyl-1,4,4a,5,5a,6-hexahydrocyclopropa[f]indazole-3-carboxamide], the DC50 amounted to 3.9 nM and the Dmax stood at 94%.

As to `C[C@@]12Cc3[nH]nc(C(=O)Nc4cnn([C@H](c5ccccc5)C5CN(C(=O)CCOCCOCCOCCOCCOCCNc6cccc7c6C(=O)N(C6CCC(=O)NC6=O)C7=O)C5)c4)c3C[C@@H]1C2(F)F` (stereo partly drawn) [Compound 29, (4aS,5aR)-N-(1-((1S)-(1-(1-((2-(2,6-dioxopiperidin-3-yl)-1,3-dioxoisoindolin-4-yl)amino)-3,6,9,12,15-pentaoxaoctadecan-18-oyl)azetidin-3-yl)(phenyl)methyl)-1H-pyrazol-4-yl)-5,5-difluoro-5a-methyl-1,4,4a,5,5a,6-hexahydrocyclopropa[f]indazole-3-carboxamide], half-maximal degradation (DC50) was put at 21 nM and the Dmax worked out at 95%.

The compound `C[C@@]12Cc3[nH]nc(C(=O)Nc4cnn([C@H](c5ccccc5)C5CN(C(=O)CCOCCOCCOCCOCCOCCOCCOCCOCCNc6cccc7c6C(=O)N(C6CCC(=O)NC6=O)C7=O)C5)c4)c3C[C@@H]1C2(F)F` (stereo partly drawn) [Compound 30, (4aS,5aR)-N-(1-((1S)-(1-(1-((2-(2,6-dioxopiperidin-3-yl)-1,3-dioxoisoindolin-4-yl)amino)-3,6,9,12,15,18,21,24-octaoxaheptacosan-27-oyl)azetidin-3-yl)(phenyl)methyl)-1H-pyrazol-4-yl)-5,5-difluoro-5a-methyl-1,4,4a,5,5a,6-hexahydrocyclopropa[f]indazole-3-carboxamide] had a DC50 of 20 nM and a Dmax of 92%.

Compound `C[C@@]12Cc3[nH]nc(C(=O)Nc4cnn([C@H](c5ccccc5)C5CN(CCOCCOCCOCCOCCOCCNc6cccc7c6C(=O)N(C6CCC(=O)NC6=O)C7=O)C5)c4)c3C[C@@H]1C2(F)F` (stereo partly drawn) [Compound 31, (4aS,5aR)-N-(1-((1S)-(1-(17-((2-(2,6-dioxopiperidin-3-yl)-1,3-dioxoisoindolin-4-yl)amino)-3,6,9,12,15-pentaoxaheptadecyl)azetidin-3-yl)(phenyl)methyl)-1H-pyrazol-4-yl)-5,5-difluoro-5a-methyl-1,4,4a,5,5a,6-hexahydrocyclopropa[f]indazole-3-carboxamide] showed a DC50 of 44 nM and a maximal degradation (Dmax) of 95%.

As for `C[C@@]12Cc3[nH]nc(C(=O)Nc4cnn([C@H](c5ccccc5)C5CN(C(=O)CCCCc6cccc7c6CN(C6CCC(=O)NC6=O)C7=O)C5)c4)c3C[C@@H]1C2(F)F` (stereo partly drawn) [Compound 32, (4aS,5aR)-N-(1-((1S)-(1-(5-(2-(2,6-dioxopiperidin-3-yl)-1-oxoisoindolin-4-yl)pentanoyl)azetidin-3-yl)(phenyl)methyl)-1H-pyrazol-4-yl)-5,5-difluoro-5a-methyl-1,4,4a,5,5a,6-hexahydrocyclopropa[f]indazole-3-carboxamide], the DC50 worked out at 25 nM and the Dmax was 69%.

Turning to `C[C@@]12Cc3[nH]nc(C(=O)Nc4cnn([C@H](c5ccccc5)C5CN(C(=O)C6CN(C7CCN(c8ccc(NC9CCC(=O)NC9=O)cn8)CC7)C6)C5)c4)c3C[C@@H]1C2(F)F` (stereo partly drawn) [Compound 36, (4aS,5aR)-N-(1-((1S)-(1-(1-(1-(5-((2,6-dioxopiperidin-3-yl)amino)pyridin-2-yl)piperidin-4-yl)azetidine-3-carbonyl)azetidin-3-yl)(phenyl)methyl)-1H-pyrazol-4-yl)-5,5-difluoro-5a-methyl-1,4,4a,5,5a,6-hexahydrocyclopropa[f]indazole-3-carboxamide], it took 1.6 nM to reach half-maximal degradation (DC50) and the maximal degradation (Dmax) was 72%.

Compound `CC(C1CN(C(=O)C2CN(C3CCN(c4ccc5c(c4)C(=O)N(C4CCC(=O)NC4=O)C5=O)CC3)C2)C1)n1cc(NC(=O)c2n[nH]c3c2C[C@@H]2C(F)(F)[C@]2(C)C3)cn1` (stereo partly drawn) [Compound 39, (4aS,5aR)-N-(1-(1-(1-(1-(1-(2-(2,6-dioxopiperidin-3-yl)-1,3-dioxoisoindolin-5-yl)piperidin-4-yl)azetidine-3-carbonyl)azetidin-3-yl)ethyl)-1H-pyrazol-4-yl)-5,5-difluoro-5a-methyl-1,4,4a,5,5a,6-hexahydrocyclopropa[f]indazole-3-carboxamide] had a DC50 of 0.88 nM and a Dmax of 94%.

Regarding `C[C@@]12Cc3[nH]nc(C(=O)Nc4cnn([C@H](c5ccccc5)C5CN(CC6CN(c7ccc8c(c7)C(=O)N(C7CCC(=O)NC7=O)C8=O)CCO6)C5)c4)c3C[C@@H]1C2(F)F` (stereo partly drawn) [Compound 41, (4aS,5aR)-N-(1-((1S)-(1-((4-(2-(2,6-dioxopiperidin-3-yl)-1,3-dioxoisoindolin-5-yl)morpholin-2-yl)methyl)azetidin-3-yl)(phenyl)methyl)-1H-pyrazol-4-yl)-5,5-difluoro-5a-methyl-1,4,4a,5,5a,6-hexahydrocyclopropa[f]indazole-3-carboxamide], half-maximal degradation (DC50) was put at 0.57 nM and the Dmax came to 86%.
